Measurements from patent US6150414A, “Compositions and methods for treating viral infections” (priority 1992, dated 2000).
Values joined by “and” are separate entries in the source; they are usually repeats but may differ in a detail not shown here. Identical values can stand only once. Like-named read-outs stand apart in the source and are kept apart here.

Key:
Friend Leukemia Virus [1] = experiment: Inhibition of Friend Leukemia Virus-induced splenomegaly in mice, compounds intraperitoneally 24 hours after virus (Example 1(a)); assay type: in vivo, BALB/c mice; set-up: Actual Spleen Weight / Average Spleen Weight: unit not given here; settings: for inhibition in vivo at 0.1 mg / inhibition in vivo at 0.05 mg / inhibition in vivo at 0.2 mg: Mus musculus, ip; for Pooled Average % Inhibition: pooled over 50, 100, 200, 2 × 100 micrograms
Excerpt: The effects of compositions according to the present invention on infection of mammals with Friend Leukemia Virus (FV) were examined.
Friend Leukemia Virus is an aggressive retrovirus which induces an acute erythroleukemia in sensitive strains of mice such as BALB/c and NIH swiss mice as described in Friend, C. J., Exp. Med. 105: 307-324, 1957; Friend, C. et al. Proc. Natl. Acad. Sci. USA 68: 378-383, 1971; Friend, C. et al. Natl. Cancer Inst. Mongr. 22: 508-552, 1966. The malignant transformation is the result of the combined activities of the Spleen Focus Forming Virus (SFFV) and the ecotropic Murine Friend Leukemia Helper Virus (F-MuLV). The acute erythroleukemia is characterized by hepatosplenomegaly (a marked increase in the size of the spleen and liver) and a severe anemia.
Friend Leukemia Virus was prepared by homogenizing the enlarged spleen of a mouse previously infected with FV, 10 days after intravenous virus injection. The spleen was homogenized in phosphate buffered saline in a volume equal to ten times the weight of the isolated spleen.
(§1) The effects of compositions according to the present invention on the increase in spleen size (splenomegaly) of BALB/c mice (Jackson Labs, Bar Harbor, ME) was examined. In these experiments, the virus (10^6 focus forming units--FFU) was inoculated intravenously and 100 micrograms of the compounds indicated in Table II were administered to the mice intraperitoneally 24 hours later. Each compound was administered once to two mice. The animals were sacrificed ten days later and their spleens weighed.
The present assay has been developed from similar assays using hypericin or pseudohypericin and employing higher numbers of experimental animals per group (e.g. 4 animals). It was discovered however that the specificity and sensitivity of this assay are such that an experimental group of two animals is of more than adequate predictive value.
(§2) As used in Table II (and subsequent Tables of this Example l(a) and (b), "average percent inhibition" is calculated as follows: [formula] wherein "ASWNC" designates "average spleen weight of negative control"; "ASWE" designates "average spleen weight of experimental (treated) subject"; and "ASWPC" designates "average spleen weight of positive control". Average spleen weight is the numerical average of spleen weights of each experimental group (in Table II each such group includes two members).
In these experiments, the virus (10^6 focus forming units--FFU) was inoculated intravenously, and the indicated doses of the antiviral compounds of this invention were administered to the BALB/c mice intraperitoneally 24 hours later. The animals were then sacrificed ten days later and their spleens weighed.
Pseudohypericin was diluted in phosphate buffered saline with 1% ethanol.
An expanded series of experiments was next performed in which various concentrations (i.e. 50, 100, 200 and 2×100, i.e., 100 micrograms administered twice) of a different set of PAC compounds (numbers 16-29 and 30-36 in Table III below) were administered intraperitoneally each according to the same protocol described above. Compounds 16-29 all had 3-5 fused, aromatic rings and no side groups except for oxygen or hydroxyl groups, whereas compounds 30-36 all had 3 fused aromatic rings and side chains selected from the group of oxygen, hydroxyl and methyl.
When 2 doses of the compounds were given, the second dose was administered 24-48 hours after the first injection. The animals were infected and splenomegaly determined as above for the compounds in Table II. In Table III, "pooled average percent inhibition" is calculated by adding the average percent inhibition for each experiment with the same compound and dividing the sum by the number of experiments (i.e. the number 4). […]

Friend Leukemia Virus [2] = experiment: FV-induced splenomegaly, PAC compounds in combination with AZT (Example 1(b)); assay type: in vivo, BALB/c mice; set-up: Spleen weight / Average Spleen Weight: unit not given here; settings: for Spleen weight: single animal
Description: as §1, §2
The compounds of the present invention (100 micrograms per mouse) were also tested in combination with AZT (20 micrograms per mouse, twice a day) using otherwise the same methods as in Example 1(a) above. As representatives, compound #9 above (3-bromophenanthro (3,4-C), phenanthrene) and compound #10 (diindeno (1, 2, 3-CD/1', 2', 3'-IM) Perylene) were chosen. […] The compounds were administered i.p. either once or five times (once per day) alone or together with AZT (20 micrograms of AZT per mouse twice a day for five days?). Thus, in experiments where AZT was administered five times, a total of […] of AZT was received by each mouse (with a total of 500 micrograms of the PAC compound).

[3] = 100 micrograms i.p. once, 24 h after FV, Table II
[4] = 1X, 100 micrograms per mouse i.p.
[5] = 5X, 100 micrograms per mouse i.p. once per day
[6] = read-out: Average Perdosage % Inhibition, dose 2 × 100 (micrograms) i.p., Table III
[7] = read-out: Average Perdosage % Inhibition, dose 50 (micrograms) i.p., Table III
[8] = read-out: Average Perdosage % Inhibition, dose 100 (micrograms) i.p., Table III
[9] = read-out: Average Perdosage % Inhibition, dose 200 (micrograms) i.p., Table III
[10] = dose 2 × 100 (micrograms) i.p., Table III
[11] = dose 50 (micrograms) i.p., Table III
[12] = dose 100 (micrograms) i.p., Table III
[13] = dose 200 (micrograms) i.p., Table III
[14] = dose 2 × 100 (micrograms) i.p., Table III, read-out: Average Perdosage % Inhibition
[15] = dose 50 (micrograms) i.p., Table III, read-out: Average Perdosage % Inhibition
[16] = dose 100 (micrograms) i.p., Table III, read-out: Average Perdosage % Inhibition
[17] = dose 200 (micrograms) i.p., Table III, read-out: Average Perdosage % Inhibition

Row | SMILES | Average Spleen Weight (Friend Leukemia Virus [1]; [3]) | % Inhibition (Friend Leukemia Virus [2]; [4]) [%] | Average Spleen Weight (Friend Leukemia Virus [2]; [4]) | Spleen weight (Friend Leukemia Virus [2]; [4]) | % Inhibition (Friend Leukemia Virus [2]; [5]) [%] | Average Spleen Weight (Friend Leukemia Virus [2]; [5]) | Spleen weight (Friend Leukemia Virus [2]; [5]) | inhibition in vivo at 0.1 mg (Friend Leukemia Virus [1]; [6]) [%] | inhibition in vivo at 0.05 mg (Friend Leukemia Virus [1]; [7]) [%] | inhibition in vivo at 0.1 mg (Friend Leukemia Virus [1]; [8]) [%] | inhibition in vivo at 0.2 mg (Friend Leukemia Virus [1]; [9]) [%] | Average Spleen Weight (Friend Leukemia Virus [1]; [10]) | Average Spleen Weight (Friend Leukemia Virus [1]; [11]) | Average Spleen Weight (Friend Leukemia Virus [1]; [12]) | Average Spleen Weight (Friend Leukemia Virus [1]; [13]) | Pooled Average % Inhibition (Friend Leukemia Virus [1]; Table III) [%] | inhibition in vivo at 0.1 mg (Friend Leukemia Virus [1]; [14]) [%] | inhibition in vivo at 0.05 mg (Friend Leukemia Virus [1]; [15]) [%] | inhibition in vivo at 0.1 mg (Friend Leukemia Virus [1]; [16]) [%] | inhibition in vivo at 0.2 mg (Friend Leukemia Virus [1]; [17]) [%] | further results
1 | Brc1cc2ccc3ccc4ccccc4c3c2c2c1ccc1ccccc12 [Compound 9, 3-Bromophenanthro(3,4-C)Phenanthrene] | 0.8756 | 3 | 2.1074 | 2.0831 and 2.1317 | 24 | 1.681 | 1.6262 and 1.7363 | – | – | – | – | – | – | – | – | – | – | – | – | – | inhibition of FV-induced splenomegaly / anti-retroviral activity (Friend Leukemia Virus [1]; Example 1(a)): weak anti-retroviral activity
2 | c1ccc2c(c1)-c1ccc3c4ccc5c6c(ccc(c7ccc-2c1c37)c64)-c1ccccc1-5 [Compound 10, Diindeno(1,2,3-CD/1',2',3'-IM)Perylene] | 0.4767 | 22 | 1.724 | 1.7816 and 1.6664 | 46 | 1.2358 | 1.5771 and 0.8945 | – | – | – | – | – | – | – | – | – | – | – | – | – | Average % Inhibition (Friend Leukemia Virus [1]; [3]): 44.3%; Average % Inhibition (Friend Leukemia Virus [1]; 100 micrograms i.p. once, 24 h after FV, Table II, listed as #10): > 40%; Actual Spleen Weight (Friend Leukemia Virus [1]; 100 micrograms i.p. once, 24 h after FV, Table II, single animal): 0.4809 and 0.4724
3 | Cc1ccc2cc3ccccc3cc2c1 [Compound 25, 2-Methylanthracene] | – | – | – | – | – | – | – | 29 | 26 | 37 | 28 | 1.1758 | 1.2104 | 1.0606 | 1.1904 | 30 | – | – | – | – | –
4 | c1ccc(C2=C(c3ccccc3)C(c3ccccc3)=C(c3ccccc3)C2)cc1 [Compound 26, 1,2,3,4-Tetraphenyl-1,3-cyclopentadiene] | – | – | – | – | – | – | – | – | – | – | – | 1.5966 | 1.1985 | 1.0280 | 1.1131 | 25 | 0 | 27 | 39 | 33 | –
5 | c1cc2cccc3c4cccc5cccc(c(c1)c23)c54 [Compound 27, Perylene] | – | – | – | – | – | – | – | 11 | 19 | 5 | 1 | 1.4342 | 1.3148 | 1.5227 | 1.6044 | 9 | – | – | – | – | –
6 | c1ccc2cc3cc4cc5ccccc5cc4cc3cc2c1 [Compound 28, Pentacene] | – | – | – | – | – | – | – | – | – | – | – | 1.4102 | 1.2780 | 1.5384 | 1.4278 | 12 | 13 | 22 | 4 | 11 | –
